Source: ChEMBL document CHEMBL1125048, “Affinity of 2-(tetrahydroisoquinolin-2-ylmethyl)- and 2-(isoindolin-2-ylmethyl)imidazolines for alpha-adrenoceptors. Differential affinity of imidazolines for the [3H]idazoxan-labeled alpha 2-adrenoceptor vs the [3H]yohimbine-labeled site” (J Med Chem, 1990)

Tests used:
[1] = molecular target: T1, Adrenergic receptor alpha-2 (Rattus norvegicus, UniProt P22086+P19328+P22909); assay: Binding affinity to the alpha-2 adrenergic receptor of rat cerebral cortex assayed using [3H]idazoxan as radioligand; type: tissue-based
T1 sequence (P22086 whole entry): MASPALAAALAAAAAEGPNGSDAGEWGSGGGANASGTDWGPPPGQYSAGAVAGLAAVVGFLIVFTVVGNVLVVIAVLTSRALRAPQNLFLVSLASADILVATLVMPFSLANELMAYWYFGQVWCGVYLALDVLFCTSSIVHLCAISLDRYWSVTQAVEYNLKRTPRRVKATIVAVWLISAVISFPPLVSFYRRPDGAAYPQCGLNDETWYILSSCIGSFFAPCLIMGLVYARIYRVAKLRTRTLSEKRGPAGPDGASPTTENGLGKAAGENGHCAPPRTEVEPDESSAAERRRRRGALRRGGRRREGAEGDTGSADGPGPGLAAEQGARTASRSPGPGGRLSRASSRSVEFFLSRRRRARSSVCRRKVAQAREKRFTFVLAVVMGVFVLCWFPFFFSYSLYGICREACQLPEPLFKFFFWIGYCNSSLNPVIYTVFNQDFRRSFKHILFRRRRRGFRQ
T1 sequence (P19328 whole entry): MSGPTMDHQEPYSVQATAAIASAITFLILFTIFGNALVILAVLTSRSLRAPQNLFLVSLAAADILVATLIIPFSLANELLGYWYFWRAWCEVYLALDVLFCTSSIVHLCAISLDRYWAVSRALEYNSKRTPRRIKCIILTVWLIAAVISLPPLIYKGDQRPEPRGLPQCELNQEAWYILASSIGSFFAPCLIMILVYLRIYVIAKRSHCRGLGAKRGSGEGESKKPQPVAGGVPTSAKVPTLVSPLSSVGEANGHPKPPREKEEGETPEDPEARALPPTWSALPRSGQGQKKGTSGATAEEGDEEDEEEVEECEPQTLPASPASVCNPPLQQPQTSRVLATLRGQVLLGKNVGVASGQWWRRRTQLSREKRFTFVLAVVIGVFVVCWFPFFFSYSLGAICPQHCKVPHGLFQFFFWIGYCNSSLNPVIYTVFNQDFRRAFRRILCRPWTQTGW
T1 sequence (P22909 whole entry): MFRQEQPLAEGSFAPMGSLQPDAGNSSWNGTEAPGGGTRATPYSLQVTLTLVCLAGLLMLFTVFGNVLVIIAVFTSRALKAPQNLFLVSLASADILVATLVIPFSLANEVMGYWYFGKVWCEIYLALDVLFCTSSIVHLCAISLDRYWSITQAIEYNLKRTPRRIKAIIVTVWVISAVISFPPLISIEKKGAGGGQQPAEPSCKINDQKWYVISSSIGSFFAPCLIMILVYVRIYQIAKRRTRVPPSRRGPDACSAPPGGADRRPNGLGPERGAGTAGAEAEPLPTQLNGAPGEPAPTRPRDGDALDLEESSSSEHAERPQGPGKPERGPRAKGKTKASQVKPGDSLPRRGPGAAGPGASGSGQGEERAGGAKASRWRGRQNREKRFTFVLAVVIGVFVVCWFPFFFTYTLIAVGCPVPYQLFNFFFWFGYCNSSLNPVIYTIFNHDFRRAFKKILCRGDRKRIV

[2] = molecular target: T2, Adrenergic receptor alpha-1 (Rattus norvegicus, UniProt P15823+P23944+P43140); assay: Binding affinity determined to alpha-1 adrenergic receptor of rat cerebral cortex using [3H]prazosin as radioligand; type: tissue-based
T2 sequence (P15823 whole entry): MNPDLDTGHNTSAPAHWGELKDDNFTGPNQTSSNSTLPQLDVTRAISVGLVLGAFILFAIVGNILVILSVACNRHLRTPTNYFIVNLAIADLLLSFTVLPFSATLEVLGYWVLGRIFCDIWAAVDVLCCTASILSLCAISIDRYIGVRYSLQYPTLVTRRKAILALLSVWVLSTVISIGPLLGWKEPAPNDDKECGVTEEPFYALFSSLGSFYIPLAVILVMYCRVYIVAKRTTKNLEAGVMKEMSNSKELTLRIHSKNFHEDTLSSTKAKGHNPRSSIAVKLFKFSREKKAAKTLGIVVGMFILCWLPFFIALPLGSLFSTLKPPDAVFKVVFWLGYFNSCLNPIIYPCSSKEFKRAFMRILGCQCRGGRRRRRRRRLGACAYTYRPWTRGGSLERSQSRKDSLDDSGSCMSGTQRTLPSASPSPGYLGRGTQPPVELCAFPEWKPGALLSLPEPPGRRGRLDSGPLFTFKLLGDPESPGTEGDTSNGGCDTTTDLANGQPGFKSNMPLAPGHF
T2 sequence (P23944 whole entry): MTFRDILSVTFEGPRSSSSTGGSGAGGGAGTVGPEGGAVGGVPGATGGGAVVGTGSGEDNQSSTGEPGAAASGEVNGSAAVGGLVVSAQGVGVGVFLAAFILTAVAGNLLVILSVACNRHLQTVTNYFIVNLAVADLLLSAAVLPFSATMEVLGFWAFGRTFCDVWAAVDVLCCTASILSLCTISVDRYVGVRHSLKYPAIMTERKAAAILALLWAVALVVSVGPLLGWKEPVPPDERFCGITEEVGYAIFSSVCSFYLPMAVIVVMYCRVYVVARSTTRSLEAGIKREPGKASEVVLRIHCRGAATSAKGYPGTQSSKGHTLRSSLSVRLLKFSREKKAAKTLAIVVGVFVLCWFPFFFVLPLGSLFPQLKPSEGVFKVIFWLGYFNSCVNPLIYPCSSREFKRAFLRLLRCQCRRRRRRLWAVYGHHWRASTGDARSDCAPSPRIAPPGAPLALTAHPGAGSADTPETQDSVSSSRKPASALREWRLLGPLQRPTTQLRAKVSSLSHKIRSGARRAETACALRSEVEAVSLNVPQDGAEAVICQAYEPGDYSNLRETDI
T2 sequence (P43140 whole entry): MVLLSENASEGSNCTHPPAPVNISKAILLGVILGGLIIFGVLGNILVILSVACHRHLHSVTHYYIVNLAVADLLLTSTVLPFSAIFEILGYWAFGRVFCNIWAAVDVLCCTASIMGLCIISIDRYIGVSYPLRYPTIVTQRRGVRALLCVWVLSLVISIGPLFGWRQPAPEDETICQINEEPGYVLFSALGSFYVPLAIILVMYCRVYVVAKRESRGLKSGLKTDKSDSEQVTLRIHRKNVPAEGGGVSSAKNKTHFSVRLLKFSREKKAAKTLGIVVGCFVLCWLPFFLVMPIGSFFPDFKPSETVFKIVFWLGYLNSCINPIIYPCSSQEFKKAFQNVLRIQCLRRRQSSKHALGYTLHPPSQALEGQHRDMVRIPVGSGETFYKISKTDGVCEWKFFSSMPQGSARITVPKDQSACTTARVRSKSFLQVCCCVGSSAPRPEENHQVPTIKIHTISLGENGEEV

[3] = molecular target: T1, Adrenergic receptor alpha-2; assay: Binding affinity to alpha-2 adrenergic receptor of rat cerebral cortex assayed using [3H]yohimbine as radioligand; type: tissue-based
[4] = molecular target: T3, Adrenergic receptor alpha-2 (Rattus norvegicus) (UniProt P22086+P19328+P22909); assay: Selectivity ratio is the antilog of the [3H]-yohimbine pKi minus the [3H]prazosin pKi; type: protein assay
[5] = molecular target: T1, Adrenergic receptor alpha-2; assay: Binding affinity was determined against alpha-2 adrenergic receptor of rat cerebral cortex using [3H]idazoxan as radioligand; type: tissue-based
[6] = molecular target: T3, Adrenergic receptor alpha-2 (Rattus norvegicus); assay: Antilog of the [3H]-idazoxan pKi minus the [3H]yohimbine pKi was determined; type: protein assay
[7] = molecular target: T1, Adrenergic receptor alpha-2; assay: Binding affinity was determined against alpha-2 adrenergic receptor of rat cerebral cortex using [3H]yohimbine as radioligand; type: tissue-based

Row | Compound | Log Ki [1] | Log Ki [2] | Log Ki [3] | Selectivity ratio [4] | Log Ki [5] | Ratio [6] | Log Ki [7]
1 | Cl.Nc1cccc2c1CCN(CC1=NCCN1)C2 | -6.99 | < -5 | -6.17 |  |  |  | 
2 | CC1c2ccccc2CCN1CC1=NCCN1.Cl.Cl (stereo not drawn) | -7.32 | -5.14 | -7.19 |  |  |  | 
3 | COc1ccc2c(c1OC)CCN(CC1=NCCN1)C2.Cl.Cl |  | < -5 |  | 28 | -6.24 | 0.6 | -6.44
4 | C=CCC1c2ccccc2CCN1CC1=NCCN1.Cl.Cl (stereo not drawn) | -6.41 | < -5 | -5.97 |  |  |  | 
5 | Cl.Cl.Clc1ccc2c(c1Cl)CN(CC1=NCCN1)CC2 | -7.68 | < -5 | -6.52 |  |  |  | 
6 | CC1Cc2ccccc2CN1CC1=NCCN1.Cl.Cl (stereo not drawn) | -7.38 | < -5 | -6.9 |  |  |  | 
7 | Cl.Cl.O=[N+]([O-])c1cccc2c1CCN(CC1=NCCN1)C2 | -7.14 | < -5 | -6.13 |  |  |  | 
8 | Cl.Cl.c1ccc2c(c1)CCN(CC1=NCCN1)C2 | -7.77 | -5.67 | -6.32 |  |  |  | 
9 | Cl.Cl.Clc1ccc(Cl)c2c1CCN(CC1=NCCN1)C2 | -8.12 | -5.5 | -7.14 |  |  |  | 
10 | Cl.Cl.Fc1cccc2c1CCN(CC1=NCCN1)C2 | -8.39 | -5.55 | -7.48 |  |  |  | 
11 | Cl.Cl.Clc1ccc2c(c1Cl)CCN(CC1=NCCN1)C2 | -7.67 | < -5 | -6.42 |  |  |  | 
12 | CCC1c2ccccc2CCN1CC1=NCCN1.Cl.Cl (stereo not drawn) | -6.31 | < -5 | -6.16 |  |  |  | 
13 | Cl.Cl.Clc1cccc2c1CCN(CC1=NCCN1)C2 | -7.8 | -5.68 | -7.65 |  |  |  | 
14 | COc1cc2c(cc1OC)CN(CC1=NCCN1)CC2.Cl.Cl | -6.13 | < -5 | -5.87 |  |  |  | 
15 | COc1ccc(OC)c2c1CCN(CC1=NCCN1)C2.Cl.Cl | -7.8 | -4.8 | -7.51 |  |  |  | 
16 | Cl.Cl.Clc1cccc2c1CN(CC1=NCCN1)C2 | -8.38 | -6.05 | -7.71 |  |  |  | 
17 | Cc1cccc2c1CCN(CC1=NCCN1)C2.Cl.Cl | -7.38 | -5.26 | -6.57 |  |  |  | 
18 | COc1cccc2c1CCN(CC1=NCCN1)C2.Cl.Cl | -8 | -4.72 | -7.07 |  |  |  | 
19 | COc1cc2c(c(OC)c1)CN(CC1=NCCN1)CC2.Cl.Cl | -7.2 | < -5 | -6.29 |  |  |  | 
20 | Cl.Cl.c1ccc2c(c1)CN(CC1=NCCN1)C2 |  | -5.43 |  | 30 | -8.07 | 14 | -6.91
21 | Cl.Cl.Fc1cccc2c1CN(CC1=NCCN1)CC2 | -8.27 | -5.5 | -7.25 |  |  |  | 
22 | Cl.Cl.Clc1ccc2c(c1)CCN(CC1=NCCN1)C2 |  | < -5 |  | 15 | -6.83 | 4 | -6.18
23 | Cl.Cl.Clc1cccc2c1CN(CC1=NCCN1)CC2 |  | -5.8 |  | 7 | -8.23 | 36 | -6.67
24 | CC1(C)c2ccccc2CCN1CC1=NCCN1.Cl.Cl | -6.68 | < -5 | -6 |  |  |  | 
25 | COc1ccc(OC)c2c1CCN(CC1=NCCN1)C2C.Cl.Cl (stereo not drawn) |  | -5.19 |  | 332 | -7.02 | 0.2 | -7.71
26 | CC1c2cccc(Cl)c2CCN1CC1=NCCN1.Cl.Cl (stereo not drawn) | -7.62 | -5.2 | -6.74 |  |  |  | 
